Activity calls are given as the source filed them.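 How the source made its calls: active means compounds giving half or more protection of infected cells from virus-caused growth loss, again on retest; inactive means the rest.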
System: CEM cells HIV-1 protection, formazan growth assay
Experiment: NCI AIDS Antiviral Assay
Conditions: for IC50: measured here: growth of uninfected CEM cells
Method in brief: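 Screen of anti-HIV-1 activity in human CEM cells using a formazan-based growth measurement at five drug concentrations. Hits with 50% or greater protection were repeated, and confirmation required reproducible complete protection.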

## COC(=O)/C(=N/O)C(C(=O)C=C(C)C)C(=O)C(=O)Nc1nc2ccc([N+](=O)[O-])cc2s1 (stereo not drawn)
  EC50: > 41.7 µM
  IC50: 32.4 µM

## C/C=C(\C(=O)OC)C1CC2OC(=O)C1(C=O)C13CCNC21N(C)c1ccccc13 (stereo not drawn)
  EC50: > 126 µM
  IC50: 117 µM

## COc1ccc2c(c1OC)CC1COCC21 (stereo not drawn)
  EC50: > 200 µM
  IC50: > 200 µM

## O=C(c1cc(Cl)ccc1Cl)N1CCN(c2cccc(Cl)c2)CC1
  EC50: > 200 µM
  IC50: 15.5 µM

## CCCCCC1C(=O)N2C=C(c3ccccc3)c3ccccc3N2C1=O (stereo not drawn)
  outcome: inactive

## O=c1c2cccnc2ncn1CCCN1CCOCC1
  outcome: inactive

## O=C(N=C1SCCN1C(=O)C(C(F)(F)F)C(F)(F)F)C(C(F)(F)F)C(F)(F)F
  EC50: > 200 µM
  IC50: > 200 µM

## COC(=O)N1C2C3CC4C2C4C3N1C(=O)OC
  outcome: inactive

## CC1=NN(c2nc(N)nc(CSc3cc(Cl)c(C)cc3S(N)(=O)=O)n2)C(C)(C)C1
  outcome: inactive

## COc1ccc2c(=O)c3c([nH]c2c1)OCC3=O
  EC50: > 100 µM
  IC50: > 100 µM

## O=C1c2cc(O)c(O)cc2O[C@H](c2ccc(O)c(O)c2)[C@H]1O
  EC50: > 200 µM
  IC50: 170 µM

## Nc1nc(NCC2(CO)CCC2)cc(=O)[nH]1
  EC50: > 200 µM
  IC50: > 200 µM

## CCC[C@H]1C(=O)N=C(N)N1C(=O)OCc1ccccc1
  EC50: > 200 µM
  IC50: > 200 µM

## CC(=O)C1(N=Nc2ccc(S(=O)(=O)Nc3nnc(C)s3)cc2)CCOC1=O (stereo not drawn)
  EC50: > 200 µM
  IC50: > 200 µM

## O=[N+]([O-])c1cccc2c(N3CC3)cnnc12
  outcome: inactive

## C=C(CCOC)CCC1CCCCC(=C)[C@H]1O (stereo partly drawn)
  EC50: > 200 µM
  IC50: > 200 µM

## COc1cc(O)c2c(=O)c(OC)c(-c3ccc(OC)c(OC)c3)oc2c1.[Co]
  EC50: > 100 µM
  IC50: 56.2 µM

## CC1CCC2C1(C)CCC1C2(C)CCC2(C)C3CC(C)(C)CCC3(C)CCC12C (stereo not drawn)
  EC50: 93.3 µM
  IC50: > 100 µM

## NC(Cc1c[nH]c2ccccc12)P(=O)(O)O (stereo not drawn)
  EC50: > 200 µM
  IC50: > 200 µM

## CN(C)CCNc1nc(-c2cccs2)cc(-c2cccs2)n1
  EC50: > 759 µM
  IC50: 6.46 µM

## O=C1NC(=O)C2(c3ccccc3)CCN1C2=O (stereo not drawn)
  EC50: > 200 µM
  IC50: > 200 µM

## CC(C)(C)OC(=O)C1CCC/C1=N/Nc1ccc([N+](=O)[O-])cc1[N+](=O)[O-] (stereo not drawn)
  EC50: > 200 µM
  IC50: 30.2 µM

## CC(=O)Nc1c(Nc2ccc3c(=O)[nH]ccc3c2C)cc[nH]c1=O
  EC50: > 398 µM
  IC50: 191 µM

## N#CC12CNCC1CN=N2 (stereo not drawn)
  EC50: > 200 µM
  IC50: > 200 µM

## NC(N)=NCCN1CCCCCc2ccccc21
  EC50: > 200 µM
  IC50: 20.9 µM

## Cc1cccc(C2=NC(=C3CCCCC3)C(=O)O2)c1
  EC50: > 200 µM
  IC50: 38 µM

## Nc1ccc2n[se]nc2c1
  outcome: inactive

## S=C=Nc1ccc(SSc2ccc(N=C=S)cc2)cc1
  EC50: > 13.5 µM
  IC50: 11.2 µM

## COc1cc(C(F)(F)F)nc(SC)n1
  EC50: > 200 µM
  IC50: > 200 µM

## CCN1CCC(O)(c2ccc([N+](=O)[O-])cc2)C(C(=O)c2ccc([N+](=O)[O-])cc2)C1 (stereo not drawn)
  EC50: > 200 µM
  IC50: 33.1 µM

## O=C1CC(NC(=O)C(F)(F)F)c2c(Br)sc(N3CCC(c4ccccc4)CC3)c21 (stereo not drawn)
  EC50: > 200 µM
  IC50: 145 µM

## N#CCc1ccc(C(C#N)/C(CCCC(=O)Nc2cccc([N+](=O)[O-])c2)=N\NC(=O)NN)cc1 (stereo not drawn)
  EC50: > 389 µM
  IC50: > 389 µM

## Cc1ccc(N=N/C(=N/NC(=O)c2ccccc2)c2ccc(N(CCC#N)CCC#N)cc2C)cc1
  EC50: > 200 µM
  IC50: 14.8 µM

## CC(C)CC(NC(=O)C(C)(CI)Cc1ccccc1)C(=O)Nc1ccccc1 (stereo not drawn)
  EC50: > 200 µM
  IC50: 170 µM

## N#Cc1c(NN)nc(NN)c(C#N)c1-c1ccccc1
  EC50: > 97.7 µM
  IC50: 50.1 µM

## Cc1c([N+](=O)[O-])ccc2c(NCCCN(C)C)ccnc12
  EC50: > 200 µM
  IC50: 19.1 µM

## CO[C@H]1Nc2c(ccc(C)c2O)C(=O)N2C=C(/C=C/C(N)=O)C[C@@H]12
  EC50: > 759 µM
  IC50: 0.427 µM

## CC(C)N1CCC2(CC1)NNc1ncccc1-n1cccc12
  EC50: > 676 µM
  IC50: 355 µM

## CCOCC(=O)N(C)c1cccc2c3c(n(C)c12)CCCCC3
  outcome: inactive

## COC[C@@H](N=CN1CCc2ccccc2C1)c1ccccc1
  EC50: > 324 µM
  IC50: > 324 µM

## CN(C)CCSc1nc(-c2cccs2)c2ccccc2n1
  EC50: > 115 µM
  IC50: 26.3 µM

## CN(C)CCCNc1nnc(NCCCN(C)C)c2c(=O)c3sccc3[nH]c12
  EC50: > 20 µM
  IC50: 2.69 µM

## Cc1c(O)ccc(N=O)c1O
  EC50: > 200 µM
  IC50: 123 µM

## Cc1c(-c2coc(-c3ccc([N+](=O)[O-])cc3)n2)c(=O)n(-c2ccccc2)n1C
  EC50: > 36.3 µM
  IC50: > 36.3 µM

## CC1CN(c2ccccc2)NC1=O (stereo not drawn)
  EC50: > 200 µM
  IC50: > 200 µM
